Here are results for 6 compounds from ChEMBL document CHEMBL1126239, “Quinazoline antifolate thymidylate synthase inhibitors: difluoro-substituted benzene ring analogues” (J Med Chem, 1992).

Broadly, the pIC50 is the negative decadic logarithm of the IC50, by convention in mol/L.

Assay [1] deals with L1210. The assay is described as follows: The compound was tested in vitro for the inhibition of L1210 cell growth in the presence of thymidine. The arrangement: concentration or dose not given beside the values. Format: functional, Mus musculus.
Assay [2] deals with L1210. Briefly: The compound was tested in vitro for the inhibition of L1210 cell growth in culture. Format: functional, cell-based. To be noted: Mus musculus.
The next assay addresses Thymidylate synthase (Mus musculus, UniProt P07607). Briefly: Inhibition of thymidylate synthase from L1210 cells. Format: cell-based.

pIC50: −log10 of the molar value.

Chain of Thymidylate synthase (P07607 whole entry): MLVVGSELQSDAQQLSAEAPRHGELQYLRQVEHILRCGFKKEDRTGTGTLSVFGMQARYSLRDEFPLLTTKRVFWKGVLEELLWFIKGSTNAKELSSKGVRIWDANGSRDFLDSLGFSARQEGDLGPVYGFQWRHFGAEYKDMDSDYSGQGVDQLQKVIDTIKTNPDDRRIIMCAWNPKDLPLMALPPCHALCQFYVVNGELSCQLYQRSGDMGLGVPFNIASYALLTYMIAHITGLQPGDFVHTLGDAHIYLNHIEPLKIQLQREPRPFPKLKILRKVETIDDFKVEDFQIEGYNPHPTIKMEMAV

On to `C#CCN(Cc1ccc2nc(C)nc(O)c2c1)c1ccc(C(=O)N[C@@H](CCC(=O)O)C(=O)O)c(F)c1F`, for which, in the assay with L1210 [1], the Control was 94%. In addition, the values for the pIC50 with L1210 [2] and at Thymidylate synthase were 6.55 and 5.77, respectively.

In the case of `C#CCN(Cc1ccc2nc(C)nc(O)c2c1)c1cc(F)c(C(=O)N[C@@H](CCC(=O)O)C(=O)O)c(F)c1`, the Control in the assay with L1210 [1] was 93%. Besides, the pIC50 is 7.21 with L1210 [2] and 7.10 against Thymidylate synthase.

Consider `Cc1nc(O)c2cc(CN(C)c3ccc(C(=O)N[C@@H](CCC(=O)O)C(=O)O)c(F)c3F)ccc2n1`, for which the pIC50 was 6.85 in the assay with L1210 [2] and 6.00 against Thymidylate synthase.

Take `C#CCN(Cc1ccc2nc(C)nc(O)c2c1)c1cc(F)c(C(=O)N[C@@H](CCC(=O)O)C(=O)O)cc1F`: the Control with L1210 [1] is recorded as 95%. For the same compound, the pIC50 is 7.57 with L1210 [2] and 6.22 against Thymidylate synthase.

In the case of `Cc1nc(O)c2cc(CN(C)c3cc(F)c(C(=O)N[C@@H](CCC(=O)O)C(=O)O)c(F)c3)ccc2n1`, the Control in the assay with L1210 [1] was found to be 90%. In addition, the pIC50 is 7.30 in the assay with L1210 [2] and 6.02 against Thymidylate synthase.

For the compound `Cc1nc(O)c2cc(CN(C)c3cc(F)c(C(=O)N[C@@H](CCC(=O)O)C(=O)O)cc3F)ccc2n1`, in the assay with L1210 [1], the Control came to 94%. In addition, the values for the negative logarithm of the IC50 (pIC50) in the assay on L1210 [2] and at Thymidylate synthase were 7.12 and 5.96, respectively.
